Patent publication US20240390355A1, “IRHOM2 INHIBITORS AND USES THEREOF” (NEW YORK SOCIETY FOR THE RELIEF OF THE RUPTURED AND …, priority 2021, published 2024)

Tests used:
Type in all cases: cell-based
[1] = test system: TGFα release from HEK-293 cells; experiment: Counter screen (Example 4a): PMA-stimulated TGFα release from HEK-293 cells, AP readout; conditions: Homo sapiens, HEK293, HEK-293 cells expressing TGFα-AP, PMA 100 ng/mL, 2 h, read-out: Counter Screen XC50 TGFα
Method: A tertiary counterscreen was also performed to monitor the release of TGFα, which is a substrate of iRhom1/ADAM17 and iRhom2/ADAM17, so its release should not be blocked by an iRhom2-selective inhibitor (Maretzky T et al. (July 2013), “iRhom2 controls the substrate selectivity of stimulated ADAM17-dependent ectodomain shedding”, PNAS 110(28): 11433-11438; and Li X et al. (May 2015), “iRhoms 1 and 2 are essential upstream regulators of ADAM17-dependent EGFR signaling”, PNAS 112(19): 6080-6085).
(§1) First, expression plasmids for alkaline phosphatase (AP)-fused KL2 and TGFα were designed and generated through gene synthesis followed by subcloning into the pcDNA3.1(+)/Hygro expression vector. […] Subsequently, DNA amplifications were performed to obtain sufficient amounts of the expression vectors. The quality of DNA and gene sequences were confirmed through restriction digest and Sanger sequencing. In parallel, cell culture of THP-1 and HEK-293 cells was initiated. Master and working cell banks were prepared. Both cell lines were scaled up and transfected with the respective constructs by electroporation. During cell culturing, cell density and viability were monitored to ensure optimal conditions for the transfections. After PMA stimulation, AP-coupled KL2 or TGFα were detected by measurement of AP activity in the supernatant. […] In contrast, THP-1 cells turned out to be not a suitable transfection host resulting in a loss of cell viability after transfection. The decision was made to proceed with HEK-293 for both selectivity assays and to establish polyclonal cell lines stably expressing AP-coupled KL2 or TGFα.
(§2) After electroporation, cells were further cultured in presence of selection antibiotics, hygromycin B, to generate stably transfected polyclonal cell pools. For both assays, KL2 and TGFα shedding, the respective selected pool turned out to be suitable. Final assay conditions were determined for the selected pools. For all experiments, batimastat (30 μM) was used as positive control for full inhibition of KL2 or TGFα shedding.
(§3) 60 μL of cells (20,000/well) were added to a sterile 384-well plate. After incubation overnight at 37° C. (5% CO2), 50 μL medium were removed and 20 μL of prediluted compounds were added to the cells. After incubation for 15 min, 20 μL of PMA (100 ng/mL final conc.) were added. The cells were incubated for 2 h at 37° C. (5% CO2). Then, 20 μL of the supernatant was transferred to a fresh plate and 20 μL of pNPP (5 mM final conc.) was added. The AP reaction was performed for 1 h at RT. The reaction was stopped by addition of 20 μL of NaOH (1 M final conc.) and the absorbance of pNP was measured at 405 nm.

[2] = test system: KL2 release from HEK-293 cells; experiment: Secondary screen (Example 3a): PMA-stimulated KL2 release from HEK-293 cells, AP readout; conditions: Homo sapiens, HEK293, HEK-293 cells expressing KL2-AP, PMA 500 ng/mL, 2 h, read-out: Secondary Screen XC50 KL2
Method: (§4) Two separate screens to identify novel small molecule inhibitors of iRhom2/ADAM17 activity were developed. […] Therefore, the primary screen for small molecule inhibitors of iRhom2/ADAM17 was a screen for inhibitors that blocked the release of TNFα from LPS-stimulated THP-1 human myeloid cells, a process that depends on iRhom2 and ADAM17. Since the release of TNFα from THP-1 cells can be blocked at many stages of the LPS/TLR4/iRhom2/ADAM17 pathway, a secondary screen was performed for another iRhom2/ADAM17 selective substrate, Kit-ligand 2 (KL-2) (Maretzky T et al. (July 2013), “iRhom2 controls the substrate selectivity of stimulated ADAM17-dependent ectodomain shedding”, PNAS 110(28): 11433-11438) in a different human cell type, human embryonic kidney cells (HEK 293).
as §1, §2
as §3, with “of cells (40,000/well) were added” for “of cells (20,000/well) were added”, “of PMA (500 ng/mL final” for “of PMA (100 ng/mL final”, “was added. AP reaction” for “was added. The AP reaction”

[3] = test system: TNFα release from THP-1 cells; experiment: Primary screen (Example 1a): LPS-stimulated TNFα release from THP-1 cells, HTRF; conditions: Homo sapiens, 100 ng/mL LPS, 3 h, normalised to 50 μM Batimastat, read-out: Primary Screen XC50 TNFα
Method: as §4
THP-1 cells were plated in 384 or 1,536 wells and transferred on the ultra-high throughput screening (uHTS) platform Mark III, and TNFα shedding was initiated by LPS stimulation of THP-1 cells. The extent of released TNFα was detected with the corresponding HTRF antibodies labeled with europium cryptate (donor) and d2 (acceptor). The HTRF signal was generated by proximity of europium cryptate and d2. All detection reagents were purchased from Cisbio. TNFα detection was performed according to the manufacturer's protocol (Product Insert for Cisbio TNFα (h) Kit Part #62HTNFAPEG & 62HTNFAPEH;
7.5 nL compound and controls in DMSO [10 μM in assay; 0.25% DMSO in 3 [μL Assay] were dissolved in 2 μL cell suspension [2.4E6/mL; 4800 cells/well; culture w/o PenStrep], pre-incubated at 37° C., 5% CO2, for 15 min with 1 μL LPS [100 ng/mL in 3 μL assay]. The cells were incubated at 37° C., 5% CO2, for 3 h with 2 μL of the HTRF-mix [1:300 f.c.]. After an incubation at room temperature for 2 h or longer, the HTRF readout was performed. Then data evaluation for normalization against the 50 μM Batimastat control (=100% […]) was applied. As an additional control, 300 nM Batimastat was used to monitor performance of cells and assay sensitivity over time.

Structure (SMILES)	IC50 [1]	IC50 [2]	IC50 [3]
COCC(=O)N1CCCc2ccc(NC(=O)Nc3ccc(F)cc3)cc21 [Compound 23]	> 128 µM	> 128 µM	3.7 µM
Cc1ccn(CCCn2cnc(-c3ccccc3)c2-c2ccncc2)n1 [Compound 19]	> 128 µM	> 128 µM	1.2 µM
Cc1ccccc1C(=O)N1CCN(Cc2ccccc2)CC1 [Compound 3]	> 128 µM	> 128 µM	12.3 µM
Cc1n[nH]c2c1C(c1ccccc1OC(F)F)C(C#N)=C(N)O2 (stereo not drawn) [Compound 31]	> 128 µM	32.2 µM	34.5 µM
CC(C)c1nccc(-c2c(-c3ccccc3)ncn2C[C@H]2CCCN2)n1 [Compound 40]	> 128 µM	> 128 µM	21 µM
CCC1CN(C(=O)c2ccc3cc[nH]c3c2)CCC(=O)N1Cc1ccccc1 (stereo not drawn) [Compound 15]	> 128 µM	> 128 µM	< 0.802 µM
Cc1ccccc1C(=O)N1CCN(c2ccc(NC(=O)c3ccco3)cc2Cl)CC1 [Compound 13]	> 128 µM	18 µM	3.5 µM
CCC(C)NC(=O)c1cc(C(=O)c2ccccc2C)c[nH]1 (stereo not drawn) [Compound 34]	> 128 µM	> 128 µM	10.2 µM
CC(C)c1nccc(-c2c(-c3ccccc3)ncn2CCc2c[nH]cn2)n1 [Compound 37]	> 128 µM	> 128 µM	4.99 µM
OC(Cc1ccccc1)Cn1cnc(-c2ccccc2)c1-c1cccnc1 (stereo not drawn) [Compound 38]	> 128 µM	> 128 µM	108 µM
COc1ccc(-c2cnc3sc(NCCCO)nn23)cc1OC [Compound 32]	> 128 µM	66.5 µM	68.7 µM
CNc1ccc2ncc(-c3cccc(O)c3)n2n1 [Compound 22]	> 128 µM	8.8 µM	27.8 µM
Cc1csc(CN2CCN(C(=O)c3c(F)cccc3Cl)CC2)n1 [Compound 8]	> 128 µM	> 128 µM	1.9 µM
O=C(c1ccccc1F)N1CCN(Cc2cccc(Br)c2)CC1 [Compound 6]	> 128 µM	> 128 µM	12.4 µM
COc1cccc(OC)c1C(=O)N1CCN(Cc2cccc3ccccc23)CC1 [Compound 10]	> 128 µM	67.7 µM	22.6 µM
Cc1ccccc1C(=O)N1CCC(Cc2ccccc2)CC1 [Compound 1]	> 128 µM	2.6 µM	10.2 µM
CC(C)c1nccc(-c2c(-c3ccccc3)ncn2C[C@H]2CCCO2)n1 [Compound 41]	> 128 µM	> 128 µM	11.6 µM
COc1ccc(Nc2nc(NCCCO)c3ccccc3n2)cc1 [Compound 24]	> 128 µM	> 128 µM	1.1 µM
CCC(Cn1cnc(-c2ccccc2)c1-c1ccncc1)N1CCOCC1 (stereo not drawn) [Compound 18]	> 128 µM	> 128 µM	21.8 µM

Structure (SMILES)	IC50 [1]	IC50 [2]	IC50 [3]
O=C(c1ccccc1F)N1CCN(Cc2nc(C3CC3)cs2)CC1 [Compound 9]	> 128 µM	> 128 µM	27.8 µM
O=C(c1c(F)cccc1F)N1CCN(Cc2ccc(Cl)s2)CC1 [Compound 7]	> 128 µM	> 128 µM	14.1 µM
Cc1ccc(-n2ncc3c(NC4CCCCC4)ncnc32)c(C)c1 [Compound 29]	> 128 µM	> 128 µM	< 0.802 µM
Cc1ccc(F)c(C(=O)N2CCc3nnc(CCc4ccccc4)n3CC2)c1F [Compound 17]	> 128 µM	> 128 µM	15.2 µM
c1ccc(-c2ncn(CCc3c[nH]cn3)c2-c2ccncc2)cc1 [Compound 36]	> 128 µM	> 128 µM	19 µM
Cc1ccccc1C(=O)N1CCN(Cc2cccc(Cl)c2)CC1 [Compound 5]	> 128 µM	> 128 µM	1.4 µM
O=C(c1c[nH]c(-c2nnc3n2CCCCC3)c1)c1cc(F)ccc1O [Compound 35]	> 128 µM	> 128 µM	28.2 µM
Cc1ccccc1C(=O)N1CCN(c2ccc(NC(=O)c3cccnc3)cc2Cl)CC1 [Compound 14]	> 128 µM	12.8 µM	< 0.802 µM
CCC1CN(C(=O)c2ccc3c(c2)CCO3)CCC(=O)N1Cc1ccccc1 (stereo not drawn) [Compound 16]	> 128 µM	> 128 µM	15.4 µM
O=C(CCn1sc2ccccc2c1=O)Nc1ccc2cc[nH]c2c1 [Compound 33]	24.1 µM	6 µM	5.1 µM
Nc1cccc(-c2cnc3ccc(NCc4cccs4)nn23)c1 [Compound 21]	> 128 µM	120 µM	1.3 µM
COc1cccc(OC)c1C(=O)N1CCN(Cc2cccc(Br)c2)CC1 [Compound 11]	> 128 µM	> 128 µM	24.7 µM
Fc1ccc(Nc2nc3nonc3nc2Nc2ccc(F)cc2F)c(F)c1 [Compound 26]	71.2 µM	22.3 µM	1.4 µM
COc1ccccc1-c1c(-c2ccccc2C)ncn1C1CC(C)(C)N(C)C(C)(C)C1 [Compound 39]	> 128 µM	> 128 µM	41.5 µM
CC(=O)c1cccc(Nc2nc(NCC3CCCO3)c3ccccc3n2)c1 (stereo not drawn) [Compound 25]	> 128 µM	55 µM	5.6 µM
C/C(=C\c1c(C)[nH]c2ccccc12)[N+](=O)[O-] [Compound 30]	> 128 µM	12.1 µM	24.3 µM
Cc1nc[nH]c1-c1nccn1-c1ccc2c(c1)CCC2 [Compound 42]	> 128 µM	> 128 µM	31 µM
C=C(C)Cn1c(=O)nc(N)c2c(-c3ccc(OC)cc3)csc21 [Compound 27]	> 128 µM	> 128 µM	< 0.802 µM
O=C(c1cccs1)N1CCC(Cc2ccccc2)CC1 [Compound 2]	> 128 µM	> 128 µM	< 0.802 µM
